One may read the Kd as a measure of binding affinity in units of concentration. The low end stands for higher affinity, the high end for lower affinity.

Each structure is given as a SMILES string.

Holding throughout (assay type): binding
For experiment [1], the target named is T1, EgFABP1 (Echinococcus granulosus, UniProt Q02970).
T1 construct: gene FABP1; recombinant EgFABP1 from pET11b in E. coli, delipidated
The experiment is described as follows: fluorescence titration of the anthroyloxy fatty acid with protein.

Experiment [2] addresses T2, EgFABP1 (Echinococcus granulosus, UniProt Q02970).
T2 construct: gene FABP1; recombinant EgFABP1 from pET11b in E. coli
T2 sequence (Q02970 1-133): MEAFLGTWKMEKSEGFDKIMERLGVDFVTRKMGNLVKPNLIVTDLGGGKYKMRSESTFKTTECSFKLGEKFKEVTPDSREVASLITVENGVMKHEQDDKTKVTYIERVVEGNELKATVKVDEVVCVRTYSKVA
The experiment is described as follows: protection from limited proteolysis (clostripain); GC of co-purified fatty acids.

The target of experiment [3] is T2, EgFABP1. The experiment is described as follows: near-UV CD change; protection from limited proteolysis (clostripain); GC of co-purified fatty acids.

`CCCCCCC(CCCCCCCCCCC(=O)O)OC(=O)c1c2ccccc2cc2ccccc12` (stereo not shown) [12AS, 12-(9-anthroyloxy)stearic acid]: the affinity on EgFABP1 [1], expressed as Kd, was 120 ± 20 nM.
For the molecule `O=C(O)CCCCCCCCCCCCCCCOC(=O)c1c2ccccc2cc2ccccc12` [16AP, 16-(9-anthroyloxy)palmitic acid], binding on EgFABP1 [1] was put at a Kd of 13 ± 6 nM.
On to `CCCCCCCCCCCCCC(=O)O` [myristic acid], for which the “protection from limited proteolysis (clostripain); GC of co-purified fatty acids” value at EgFABP1 [2] is reported as “Results show that binding of FAs gives EgFABP1 significant relative protection against cleavage”.
On to `CCCCCCCC/C=C\CCCCCCCC(=O)O` [oleic acid], for which, on EgFABP1 [3], the “near-UV CD change; protection from limited proteolysis (clostripain); GC of co-p” value is “the near-UV CD spectra (Figure S1) showed differences upon ligand binding, especially with oleic acid”.
